Molecular target: Androgen Receptor (AR) (Homo sapiens, UniProt P10275)
Assay: competition radioligand binding with [3H]-R1881

Androgen Receptor (AR), sequence (P10275 whole entry): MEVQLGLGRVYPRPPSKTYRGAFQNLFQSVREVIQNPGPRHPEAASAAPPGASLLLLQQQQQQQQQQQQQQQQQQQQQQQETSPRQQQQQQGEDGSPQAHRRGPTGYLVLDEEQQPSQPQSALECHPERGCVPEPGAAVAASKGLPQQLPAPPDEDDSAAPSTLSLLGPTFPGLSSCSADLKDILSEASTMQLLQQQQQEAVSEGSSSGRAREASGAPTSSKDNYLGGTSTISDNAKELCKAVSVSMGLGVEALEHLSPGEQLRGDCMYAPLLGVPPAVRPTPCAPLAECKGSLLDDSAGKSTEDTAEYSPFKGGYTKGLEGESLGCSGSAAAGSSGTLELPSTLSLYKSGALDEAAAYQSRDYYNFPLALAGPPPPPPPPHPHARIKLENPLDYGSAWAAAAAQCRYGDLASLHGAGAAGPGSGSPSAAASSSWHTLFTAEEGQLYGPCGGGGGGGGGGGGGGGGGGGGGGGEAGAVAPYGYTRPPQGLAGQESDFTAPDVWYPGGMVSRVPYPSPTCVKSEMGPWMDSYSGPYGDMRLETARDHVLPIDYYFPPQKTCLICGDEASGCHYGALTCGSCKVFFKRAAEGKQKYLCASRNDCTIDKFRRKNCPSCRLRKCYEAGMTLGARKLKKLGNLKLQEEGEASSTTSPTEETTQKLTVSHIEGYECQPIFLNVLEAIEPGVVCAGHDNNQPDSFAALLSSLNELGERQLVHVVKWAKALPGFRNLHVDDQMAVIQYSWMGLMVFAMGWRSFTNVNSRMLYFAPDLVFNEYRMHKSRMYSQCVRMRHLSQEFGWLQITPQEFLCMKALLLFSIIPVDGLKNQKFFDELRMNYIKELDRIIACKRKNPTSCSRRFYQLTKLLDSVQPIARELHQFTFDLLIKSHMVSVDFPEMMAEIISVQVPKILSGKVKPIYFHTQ

CC1(C)C(=O)N(c2ccc(C#N)c(C(F)(F)F)c2)C(=S)N1CCCCO [RU59063]
competition radioligand binding with [3H]-R1881 (parent ligand): competition radioligand binding assay using [^3H]-R1881 showed that appending of the adamantyl group to RU59063 reduced affinity
